Structures can show the parent of a compound that is named as a salt. Where two headings read alike, the source gives them in different places.
Tests used:
[1] = general tranquilizer activity in mice (exploratory loss, ptosis, catatonia, muscle tone, grip and lift reflexes, pinna twitch reflex, tremors, death); settings: mouse, in vivo, po
Method: (§1) Groups of five Carworth CF1 S female mice, 16-20 g each, were fasted 16-22 hours before use. The mice were put in opaque plastic "shoe-box" cages 15-30 min. before injection, and then treated orally with 4, 12, 36, 108 and 324 mg/kg of the compound to be tested […] in 1% aqueous distilled water solution of methylcellulose (Methocel®). Each dose was given in a standard volume of 0.45 ml. Observations were made at 0.5, 2 and 24 hours after dosing. ED50 values were calculated for each parameter including death (LD50). The ED50 and LD50 values are the doses at which 50% of the animals would be expected to respond.
(§2) Exploratory Activity - The mouse is placed on a stainless steel wire mesh screen (8 inches × 12 inches, 3 mesh per inch, 174 inch mesh openings) "shoe-box" lid (1 inch high) and is observed for normal activities, such as nose movements, head movements with apparent visual examination of the area, and/or walking around on the screen. Absence of or marked depression of these activities for 5 seconds constitutes loss of exploratory activity.
(§3) Ptosis - The mouse is picked up by the tail and placed on the screen with its head facing the observer. Bilateral eyelid closure of 50% or more two seconds after placement is considered ptosis.
(§4) Catatonia - The mouse is placed with its front paws on the edge of a stainless steel "shoe-box" cover, 1 inch high, covered with adhesive tape. Failure to remove both paws from the cover's edge within 5 seconds constitutes catatonia.
(§5) Muscle Tone - The observer gently strokes the abdominal musculature of the mouse with thumb and forefinger. Flaccidity (or rarely, tenseness) is recorded.
(§6) Grip and Lift Reflexes - The mouse is gently swung by the tail toward a horizontal 12 gauge wire tautly stretched 25 cm above the bench. After the mouse grasps the wire with its forepaws, its posterior end is held directly below the wire. A normal mouse grasps the wire with its forepaws and immediately lifts its hind limbs to the wire. Failure to grasp the wire with the forepaws in both trials constitutes loss of the grip reflex; failure to lift the hind limbs to grasp the wire with at least one hind paw within 5 seconds constitutes loss of the lift reflex.
(§7) Pinna Twitch Reflex - The mouse is placed on the bar 10-20 cm horizontally and 9 cm vertically from a Galton whistle adjusted for 13 kc (5 mm on the whistle scale) and is subjected to several short bursts of sound.
(§8) The ED50 values, i.e., the dose which caused the response in 50% of the mice, are tabulated.

female white mice = experiment: as above; settings: for ED50: Mus musculus, po
Method: as §1, §2, §3, §4, §5, §6, §7, §8

[2] = tested on: phenylquinone-induced writhing; experiment: analgesic activity: prevention of phenylquinone-induced writhing in mice; assay type: in vivo, mouse (Carworth CF1 S female mice); settings: oral, phenylquinone 1.1 mg/kg intraperitoneally
From the text: This mouse test is predictive of analgesic response in humans. [E. Siegmund, R. Cadmus and G. Lee, Proc. Soc.
ED50 values were obtained graphically from the data.

[3] = read-out: ED50 Catatonia, oral, mice, observed at 0.5, 2 and 24 hours
[4] = read-out: ED50 Exploratory Loss Visual, oral, mice, observed at 0.5, 2 and 24 hours
[5] = read-out: ED50 Muscle Tone, oral, mice, observed at 0.5, 2 and 24 hours
[6] = read-out: ED50 Ptosis, oral, mice, observed at 0.5, 2 and 24 hours
[7] = read-out: ED50 Reflexes Grip, oral, mice, observed at 0.5, 2 and 24 hours
[8] = read-out: ED50 Reflexes Lift, oral, mice, observed at 0.5, 2 and 24 hours
[9] = read-out: ED50 Reflexes Pinna, oral, mice, observed at 0.5, 2 and 24 hours
[10] = read-out: ED50 Tremors, oral, mice, observed at 0.5, 2 and 24 hours
[11] = oral, mice, observed at 0.5, 2 and 24 hours
[12] = oral, mice, observed at 0.5, 2 and 24 hours, hydrochloride

Structure (SMILES) | LD50 at 24 h [1] [mg/kg] | ED50 (female white mice; [3]) [mg/kg] | ED50 (female white mice; [4]) [mg/kg] | ED50 (female white mice; [5]) [mg/kg] | ED50 (female white mice; [6]) [mg/kg] | ED50 (female white mice; [7]) [mg/kg] | ED50 (female white mice; [8]) [mg/kg] | ED50 (female white mice; [9]) [mg/kg] | ED50 (female white mice; [10]) [mg/kg] | Phenylquinone Analgesia (activity in words) [2] | LD50 (female white mice; 24-hour value, oral, mice) [mg/kg] | ED50 Muscle Tone (female white mice; [11]) [mg/kg] | ED50 Reflexes Grip (female white mice; [11]) [mg/kg] | ED50 Tremors (female white mice; [11]) [mg/kg] | ED50 Catatonia (female white mice; [12]) [mg/kg] | ED50 Exploratory Loss Visual (female white mice; [12]) [mg/kg] | ED50 Ptosis (female white mice; [12]) [mg/kg] | ED50 Reflexes Lift (female white mice; [12]) [mg/kg] | ED50 Reflexes Pinna (female white mice; [12]) [mg/kg] | ED50 ([2]; Mus musculus, dose blocking writhing in 50% of mice, read-out: ED50 Phenylquinone Analgesia) [mg/kg]
CC1[C@@H]2c3ccccc3[C@@H]3C[C@@]2(CN1CC1CCCC1)c1ccccc13 (stereo partly drawn) [Example 3g, 2-cyclopentylmethyl-1-methyl-trans-2,3,8,12b-tetrahydro-1H-3a,8-methanodibenzo[3,4:6,7]cyclohepta[1,2-c]pyrrole, hydrochloride] | > 324 | 20 | 7 | 20 | 12 | > 324 | 36 | 20 | > 324 | Active |  |  |  |  |  |  |  |  |  | 
CN(C)CCCN1c2ccccc2Sc2ccc(Cl)cc21 [Chlorpromazine, reference compound] | 850 | 8 | 7 | 8 | 7 | 240 | 8 | 5 | > 324 |  |  |  |  |  |  |  |  |  |  | 
CC1[C@@H]2c3ccccc3[C@@H]3C[C@@]2(CN1CC1CCCC1)c1ccccc13 (stereo partly drawn) [Example 3h, 2-cyclopentylmethyl-1-methyl-trans-2,3,8,12b-tetrahydro-1H-3a,8-methanodibenzo[3,4:6,7]-cyclohepta[1,2-c]pyrrole hydrochloride] |  |  |  |  |  |  |  |  |  |  | > 324 | 20 | > 324 | > 324 | 12 | < 4 | 20 | 20 | 12 | 
C[C@]12C[C@@]3(CN(CC4CCCCC4)C[C@@H]3c3ccccc31)c1ccccc12 (relative stereo) [Example 1, 2-Cyclohexylmethyl-8-methyl-trans-2,3,8,12b-tetra-hydro-1H-3a,8-methanodibenzo[3,4:6,7]cyclohepta[1,2-c]-pyrrole Hydrochloride] | > 324 | 109 | 87 | 109 | 87 | > 324 | 97 | 109 | > 324 |  |  |  |  |  |  |  |  |  |  | 30
CN1C[C@@H]2c3ccccc3[C@]3(C)C[C@@]2(C1)c1ccccc13 (relative stereo) [Example 2, 2,8-Dimethyl-trans-2,3,8,12b-tetrahydro-1H-3a,8-methanodibenzo[3,4:6,7]cyclohepta[1,2-c]pyrrole Hydrochloride] | 300 | 60 | 60 | 36 | 60 | 60 | 60 | 60 | 60 | Active |  |  |  |  |  |  |  |  |  | 
CN1C(=O)CN=C(c2ccccc2)c2cc(Cl)ccc21 [Diazepam, reference compound] |  | 59 | 87 | 89 | 79 | 78 | 4.4 | 63 | > 324 |  |  |  |  |  |  |  |  |  |  | 

Reference: patent US4076830A, “Alkylmethanodibenzocycloheptapyrroles” (E. I. Du Pont de Nemours and Company, priority 1976, dated 1978)
